From ChEMBL document CHEMBL1914436, “Synthesis and in vivo evaluation of cyclic diaminopropane BACE-1 inhibitors” (Bioorg Med Chem Lett, 2011)
Activity calls are given as the source filed them. No cut-off for these calls is given here.

Tests used:
[1] = Efflux ratio of permeability from basolateral to apical side to apical to basolateral side of human Caco2 cells; assay type: ADME, cell-based; details: Caco-2
Beta-secretase 1 [2] = target: T1, Beta-secretase 1 (Homo sapiens, UniProt P56817); assay: Inhibition of BACE-1 in human HEK293 cells overexpressing APP 695 swedish mutation assessed as inhibition of amyloid beta (1 to 40) production by ELISA method; assay type: cell-based
[3] = Permeability from basolateral to apical side of human Caco2 cells; assay type: ADME, cell-based; details: Caco-2, read-out: permeability
[4] = Permeability from apical to basolateral side of human Caco2 cells; assay type: ADME, cell-based; details: Caco-2, read-out: permeability
Rattus norvegicus [5] = assay: Antialzheimer activity in rat assessed as reduction in brain amyloid beta (1 to 40) level up to 100 mg/kg, ip measured at 5 hrs post-dose; assay type: functional, organism-based; design: dose 100 mg/kg
Brain [6] = assay: Drug level in rat brain at 100 mg/kg, ip; assay type: ADME, organism-based; design: dose 100 mg/kg, route intraperitoneal; details: in vivo, read-out: Drug uptake
Plasma [7] = assay: Antialzheimer activity in ip dosed rat assessed as reduction in plasma amyloid beta (1 to 40) level measured at 5 hrs post-dose; assay type: functional
[8] = Ratio of drug level in brain to plasma in rat at 100 mg/kg, ip at 5 hrs; assay type: ADME, organism-based; design: dose 100 mg/kg, route intraperitoneal; details: brain and plasma, read-out: BPR
[9] = Fraction unbound in rat plasma at 30 mg/kg, ip; assay type: ADME, organism-based; design: dose 30 mg/kg, route intraperitoneal
Beta-secretase 1 [10] = target: T1, Beta-secretase 1; assay: Displacement of [3H]BMS-599240 from recombinant human BACE-1
Plasma [11] = assay: Drug level in rat plasma at 30 mg/kg, ip; assay type: ADME, organism-based; design: dose 30 mg/kg, route intraperitoneal; details: in vivo, read-out: Drug uptake
Beta-secretase 1 [12] = target: T1, Beta-secretase 1; assay: Inhibition of BACE-1
Beta-secretase 1 [13] = target: T1, Beta-secretase 1; assay: Inhibition of BACE-1 in human HEK293 cells overexpressing APP 695 swedish mutation assessed as inhibition of amyloid beta (1 to 40) production by immunoprecipitation assay; assay type: cell-based
[14] = Ratio of drug level in brain to plasma in rat at 10 mg/kg, sc; assay type: ADME, organism-based; design: dose 10 mg/kg, route subcutaneous; details: brain and plasma, read-out: BPR
Rattus norvegicus [15] = assay: Antialzheimer activity in rat plasma assessed as amyloid beta (1 to 40) level at 3 mg/kg, sc relative to vehicle treated control; assay type: functional; details: route subcutaneous
Plasma [16] = assay: Total plasma concentration in rat at 10 mg/kg, sc; assay type: ADME, organism-based; design: dose 10 mg/kg, route subcutaneous; details: in vivo
Mus musculus [17] = assay: Antialzheimer activity in sc dosed P-gp knockout mouse brain assessed as reduction in amyloid beta (1 to 40) level after 5 hrs by ELISA; assay type: functional
Rattus norvegicus [18] = assay: Antialzheimer activity in rat plasma assessed as amyloid beta (1 to 40) level at 100 mg/kg, sc relative to vehicle treated control; assay type: functional; details: route subcutaneous
Rattus norvegicus [19] = assay: Antialzheimer activity in rat plasma assessed as amyloid beta (1 to 40) level at 10 mg/kg, sc relative to vehicle treated control; assay type: functional; details: route subcutaneous
[20] = Ratio of drug level in brain to plasma in rat at 100 mg/kg, sc; assay type: ADME, organism-based; design: dose 100 mg/kg, route subcutaneous; details: brain and plasma, read-out: BPR
Brain [21] = assay: Drug level in rat brain at 3 mg/kg, sc; assay type: ADME, organism-based; design: dose 3 mg/kg, route subcutaneous; details: in vivo, read-out: Drug uptake
[22] = Fraction unbound in sc dosed mouse plasma; assay type: ADME, organism-based
Rattus norvegicus [23] = assay: Antialzheimer activity in rat brain assessed as amyloid beta (1 to 40) level at 100 mg/kg, sc relative to vehicle treated control; assay type: functional; details: route subcutaneous
Brain [24] = assay: Drug level in rat brain at 100 mg/kg, sc; assay type: ADME, organism-based; design: dose 100 mg/kg, route subcutaneous; details: in vivo, read-out: Drug uptake
Mus musculus [25] = assay: Antialzheimer activity in wild type mouse brain assessed as reduction in amyloid beta (1 to 40) level up to 100 mg/kg, sc; assay type: functional, organism-based; design: dose 100 mg/kg
[26] = Ratio of drug level in brain to plasma in rat at 3 mg/kg, sc; assay type: ADME, organism-based; design: dose 3 mg/kg, route subcutaneous; details: brain and plasma, read-out: BPR
Brain [27] = assay: Drug level in rat brain at 10 mg/kg, sc; assay type: ADME, organism-based; design: dose 10 mg/kg, route subcutaneous; details: in vivo, read-out: Drug uptake
Plasma [28] = assay: Total plasma concentration in rat at 100 mg/kg, sc; assay type: ADME, organism-based; design: dose 100 mg/kg, route subcutaneous; details: in vivo
Plasma [29] = assay: Total plasma concentration in rat at 3 mg/kg, sc; assay type: ADME, organism-based; design: dose 3 mg/kg, route subcutaneous; details: in vivo
[30] = Fraction unbound in sc dosed rat plasma; assay type: ADME, organism-based
Rattus norvegicus [31] = assay: Antialzheimer activity in rat plasma assessed as reduction in amyloid beta (1 to 40) level at 3 mg/kg, sc relative to vehicle treated control; assay type: functional; design: scale not given: the % may be the effect or the level left; details: route subcutaneous
Rattus norvegicus [32] = assay: Antialzheimer activity in rat brain assessed as amyloid beta (1 to 40) level at 10 mg/kg, sc relative to vehicle treated control; assay type: functional; details: route subcutaneous
Mus musculus [33] = assay: Antialzheimer activity in sc dosed P-gp knockout mouse plasma assessed as reduction in amyloid beta (1 to 40) level after 5 hrs by ELISA; assay type: functional
Rattus norvegicus [34] = assay: Antialzheimer activity in rat brain assessed as amyloid beta (1 to 40) level at 3 mg/kg, sc relative to vehicle treated control; assay type: functional; details: route subcutaneous

T1 sequence (P56817 whole entry): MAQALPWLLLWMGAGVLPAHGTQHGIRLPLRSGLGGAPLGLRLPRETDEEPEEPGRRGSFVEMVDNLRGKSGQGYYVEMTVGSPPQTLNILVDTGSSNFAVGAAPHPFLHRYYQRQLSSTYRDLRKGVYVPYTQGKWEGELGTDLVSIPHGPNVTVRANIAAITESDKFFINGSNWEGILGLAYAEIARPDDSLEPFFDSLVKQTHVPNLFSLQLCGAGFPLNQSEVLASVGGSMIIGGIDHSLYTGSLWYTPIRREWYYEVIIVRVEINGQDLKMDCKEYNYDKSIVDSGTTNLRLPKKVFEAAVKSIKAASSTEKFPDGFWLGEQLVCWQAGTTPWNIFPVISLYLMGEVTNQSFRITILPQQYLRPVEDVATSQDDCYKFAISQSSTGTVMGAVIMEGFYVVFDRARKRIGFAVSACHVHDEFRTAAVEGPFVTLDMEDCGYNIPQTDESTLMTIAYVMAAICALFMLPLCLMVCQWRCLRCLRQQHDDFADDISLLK

CCC(C)[C@@]1(NC(C)=O)CCN([C@@H](CCc2ccccc2)C(=O)N[C@@H](Cc2cc(F)cc(F)c2)[C@H](O)CNCc2cccc(OC)c2)C1=O (stereo partly drawn)
efflux ratio [1]: 1.5
IC50 (Beta-secretase 1 [2]): 3 nM
Papp B→A [3]: 11.4 ×10⁻⁶ cm/s
Papp A→B [4]: 7.5 ×10⁻⁶ cm/s
Activity (Rattus norvegicus [5]): inactive
concentration (Brain [6]): 113 nM
Activity (Plasma [7]): Dose-dependent effect
ED50 (Plasma [7]): 30 mg/kg
Kp at 5 h [8]: < 0.05
fraction unbound [9]: 0.011
IC50 (Beta-secretase 1 [10]): 2 nM
concentration (Plasma [11]): 3700 nM

CCCN(CCC)C(=O)c1cccc(C(=O)N[C@@H](Cc2cc(F)cc(F)c2)[C@H](O)[C@H]2Cc3ccccc3CN2)c1 (stereo in doubt; 15b)
IC50 (Beta-secretase 1 [12]): 1600 nM

CCCS[C@H]1CN[C@@H]([C@@H](O)[C@H](Cc2cc(F)cc(F)c2)NC(=O)[C@H](CCc2ccccc2)N2CC[C@](NC(C)=O)(C(C)CC)C2=O)C1 (stereo partly drawn)
IC50 (Beta-secretase 1 [13]): 15 nM

CCCS(=O)(=O)[C@@H]1CN[C@@H]([C@@H](O)[C@H](Cc2cc(F)cc(F)c2)NC(=O)[C@H](CCc2ccccc2)N2CC[C@](NC(C)=O)(C(C)CC)C2=O)C1 (stereo partly drawn)
IC50 (Beta-secretase 1 [13]): 45 nM

CCCCN(C)C(=O)n1cc(C(=O)N[C@@H](Cc2cc(F)cc(F)c2)[C@H](O)[C@H]2Cc3ccccc3CN2)c2cccnc21
IC50 (Beta-secretase 1 [12]): 1200 nM

CCC(C)[C@@]1(NC(C)=O)CCN([C@@H](CCc2ccccc2)C(=O)N[C@@H](Cc2cc(F)cc(F)c2)[C@H](O)C2Cc3cccc(O)c3CN2)C1=O (stereo partly drawn)
IC50 (Beta-secretase 1 [12]): 870 nM

CC[C@@H](C)[C@H](N)C(=O)N[C@@H](CCc1ccccc1)C(=O)N[C@@H](CC(C)C)[C@@H](O)C[C@@H](C)C(=O)NCCCCc1ccccc1
IC50 (Beta-secretase 1 [12]): 88 nM

CCCC[C@@H]1CCN([C@@H](C)C(=O)N[C@@H](Cc2cc(F)cc(F)c2)[C@H](O)[C@H]2C[C@@H](S(=O)(=O)CCC)CN2)C1=O
IC50 (Beta-secretase 1 [13]): > 330 nM

CCC(C)[C@@]1(NC(C)=O)CCN([C@@H](CCc2ccccc2)C(=O)N[C@@H](Cc2cc(F)cc(F)c2)[C@H](O)C2Cc3cccc(OC)c3CN2)C1=O (stereo partly drawn)
IC50 (Beta-secretase 1 [13]): 20 nM
IC50 (Beta-secretase 1 [12]): 4 nM

CCC(C)[C@@]1(NC(C)=O)CCN([C@@H](CCc2ccccc2)C(=O)N[C@@H](Cc2ccccc2)[C@H](O)CNCc2cccc(OC)c2)C1=O (stereo partly drawn)
IC50 (Beta-secretase 1 [2]): 11 nM
IC50 (Beta-secretase 1 [10]): 5 nM

CCCOc1cccc2c1CNC([C@@H](O)[C@H](Cc1cc(F)cc(F)c1)NC(=O)[C@H](CCc1ccccc1)N1CC[C@](NC(C)=O)(C(C)CC)C1=O)C2 (stereo partly drawn)
IC50 (Beta-secretase 1 [13]): 140 nM
IC50 (Beta-secretase 1 [12]): 17 nM

CCCC[C@H]1CCN([C@@H](C)C(=O)N[C@@H](Cc2cc(F)cc(F)c2)[C@H](O)[C@H]2Cc3ccccc3CN2)C1=O
IC50 (Beta-secretase 1 [12]): 1600 nM

CCCN(CCC)C(=O)c1cccc(C(=O)N[C@@H](Cc2cc(F)cc(F)c2)[C@H](O)[C@H]2Cc3ccccc3CN2)c1 (stereo in doubt; 15a)
IC50 (Beta-secretase 1 [12]): 1100 nM

CCC(C)[C@@]1(N)CCN([C@@H](CCc2ccccc2)C(=O)N[C@@H](CC(C)C)[C@@H](O)C[C@@H](C)C(=O)NCCCCc2ccccc2)C1=O (stereo partly drawn)
IC50 (Beta-secretase 1 [12]): 141 nM

CCCN(CCC)C(=O)c1cc(C(=O)N[C@@H](Cc2cc(F)cc(F)c2)[C@H](O)[C@H]2C[C@@H](S(=O)(=O)CCC)CN2)cc(-c2ncco2)c1
IC50 (Beta-secretase 1 [13]): 68 nM

CC(=O)N[C@]1(CC(C)C)CCN([C@@H](CCc2ccccc2)C(=O)N[C@@H](Cc2cc(F)cc(F)c2)[C@H](O)C2Cc3ccccc3CN2)C1=O (stereo partly drawn)
IC50 (Beta-secretase 1 [13]): 10 nM
IC50 (Beta-secretase 1 [12]): 8 nM

CCC(C)[C@@]1(NC(C)=O)CCN([C@@H](CCc2ccccc2)C(=O)N[C@@H](Cc2cc(F)cc(F)c2)[C@H](O)[C@@H]2Cc3ccccc3CN2)C1=O (stereo partly drawn)
IC50 (Beta-secretase 1 [12]): 600 nM

CCC(C)[C@@]1(NC(C)=O)CCN([C@@H](CCc2ccccc2)C(=O)N[C@@H](Cc2cc(F)cc(F)c2)[C@H](O)[C@H]2C[C@@H](S(=O)(=O)c3ccccc3)CN2)C1=O (stereo partly drawn)
IC50 (Beta-secretase 1 [13]): 12 nM

CCCS(=O)(=O)[C@H]1CN[C@@H]([C@@H](O)[C@H](Cc2cc(F)cc(F)c2)NC(=O)[C@H](CCc2ccccc2)N2CC[C@](NC(C)=O)(C(C)CC)C2=O)C1 (stereo partly drawn)
efflux ratio [1]: > 4
Papp B→A [3]: 5.8 ×10⁻⁶ cm/s
Kp [14]: 0.11
Papp A→B [4]: < 1.5 ×10⁻⁶ cm/s
Activity (Rattus norvegicus [15]): 28%
concentration (Plasma [16]): 740 nM
IC50 (Beta-secretase 1 [13]): 5 nM
ED50 (Mus musculus [17]): 50 mg/kg
Activity (Rattus norvegicus [18]): 15%
Activity (Rattus norvegicus [19]): 10%
Kp [20]: 0.05
concentration (Brain [21]): 46 nM
fraction unbound [22]: 0.24
Activity (Rattus norvegicus [23]): 91%
concentration (Brain [24]): 260 nM
Activity (Mus musculus [25]): inactive
Kp [26]: 0.32
concentration (Brain [27]): 78 nM
concentration (Plasma [28]): 5800 nM
concentration (Plasma [29]): 160 nM
fraction unbound [30]: 0.3
Activity (Rattus norvegicus [31]): 72%
Activity (Rattus norvegicus [32]): 92%
ED50 (Mus musculus [33]): 30 mg/kg
Activity (Rattus norvegicus [34]): 85%

CCC(C)[C@@]1(NC(C)=O)CCN([C@@H](CCc2ccccc2)C(=O)N[C@@H](Cc2cc(F)cc(F)c2)[C@H](O)[C@@H]2Cc3cccc(OC)c3CN2)C1=O (stereo partly drawn)
IC50 (Beta-secretase 1 [12]): 140 nM

CCC(C)[C@@]1(NC(C)=O)CCN([C@@H](CCc2ccccc2)C(=O)N[C@@H](Cc2cc(F)cc(F)c2)[C@H](O)[C@H]2C[C@@H](S(=O)(=O)Cc3ccc(F)cc3)CN2)C1=O (stereo partly drawn)
IC50 (Beta-secretase 1 [13]): 3 nM

CCCC[C@H]1CCN([C@@H](CCc2ccccc2)C(=O)N[C@@H](Cc2cc(F)cc(F)c2)[C@H](O)[C@H]2Cc3ccccc3CN2)C1=O
IC50 (Beta-secretase 1 [12]): 1000 nM

CCC(C)[C@@]1(NC(C)=O)CCN([C@@H](CCc2ccccc2)C(=O)N[C@@H](Cc2cc(F)cc(F)c2)[C@H](O)C2Cc3ccccc3CN2)C1=O (stereo partly drawn)
IC50 (Beta-secretase 1 [13]): 110 nM
IC50 (Beta-secretase 1 [12]): 54 nM
